In patent US10934310B2, “Inhibitors of Bruton's tyrosine kinase and method of their use” (JANSSEN PHARMACEUTICA NV, priority 2015, dated 2021):

target: unphosphorylated-BTK kinase domain (UP-BTK), GST-tagged human BTK (389-659aa) (Homo sapiens (Human), UniProt Q06187); experiment: BTK Kinase Lanthascreen Binding Assay; conditions: Lanthascreen binding, 60 minutes incubation; pIC50 = negative log of the IC50 in molar
Procedure: BTK Kinase Lanthascreen Binding Assay:
A BTK kinase lanthascreen binding assay monitors compound binding to unphosphorylated-BTK kinase domain (UP-BTK), by competing with a fluorescent labeled tracer. […] Data were analyzed using Xlfit™ version 5.3 from ID Business Solutions (Guildford), Microsoft Excel add-in. pIC50 refers to the negative log of the IC50 in molar.

Sequence of unphosphorylated-BTK kinase domain (UP-BTK), GST-tagged human BTK (389-659aa) (Q06187 389-659): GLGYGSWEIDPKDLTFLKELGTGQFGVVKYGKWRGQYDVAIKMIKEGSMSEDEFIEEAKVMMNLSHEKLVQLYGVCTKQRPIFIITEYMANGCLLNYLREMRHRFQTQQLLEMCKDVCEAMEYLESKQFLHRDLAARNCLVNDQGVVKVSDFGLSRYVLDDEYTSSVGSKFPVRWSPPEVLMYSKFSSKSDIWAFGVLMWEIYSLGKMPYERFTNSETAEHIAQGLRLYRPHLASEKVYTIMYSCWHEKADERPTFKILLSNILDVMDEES

Compound	BTK_I_binding pIC50
Cc1cc(OCC(C)C)ncc1N1C(=O)Nc2c(C(=O)N[C@@H]3CCC[C@@H]3N)sc3nccc1c23 (single isomer, unassigned) [Example 397, N-((1R,2S)-2-Aminocyclopentyl)-5-(*S)-(6-isobutoxy-4-methylpyridin-3-yl)-4-oxo-4,5-dihydro-3H-1-thia-3,5,8-triazaacenaphthylene-2-carboxamide]	6.62
Cc1cc(Oc2ccccc2)ccc1N1C(=O)Nc2c(C(=O)N[C@@H]3CCCC[C@H]3NC(=O)CN)sc3nccc1c23 (single isomer, unassigned) [Example 441, N-((1R,2R)-2-(2-Aminoacetamido)cyclohexyl)-5-(*S)-(2-methyl-4-phenoxyphenyl)-4-oxo-4,5-dihydro-3H-1-thia-3,5,8-triazaacenaphthylene-2-carboxamide]	7.01

Second part, the compound after the results:

BTK_I_binding pIC50	Compound
6.80	C=CC(=O)N[C@@H]1CCC[C@H]1NC(=O)c1sc2nccc3c2c1NC(=O)N3c1ccnc(C2CCC2)c1 [Example 379, N-((1R,2R)-2-Acrylamidocyclopentyl)-5-(2-cyclobutylpyridin-4-yl)-4-oxo-4,5-dihydro-3H-1-thia-3,5,8-triazaacenaphthylene-2-carboxamide]
7.84	C=CC(=O)N[C@H]1CCC[C@H]1NC(=O)c1sc2nccc3c2c1NC(=O)N3c1ccc(Oc2cccnn2)cc1C [Example 305, N-((1R,2S)-2-Acrylamidocyclopentyl)-5-(2-methyl-4-(pyridazin-3-yloxy)phenyl)-4-oxo-4,5-dihydro-3H-1-thia-3,5,8-triazaacenaphthylene-2-carboxamide]
8.06	C=CC(=O)N[C@H]1CCC[C@H]1NC(=O)c1sc2nccc3c2c1NC(=O)N3c1ccc(Oc2cccc(C)n2)cc1 [Example 369, N-((1R,2S)-2-Acrylamidocyclopentyl)-5-(4-((6-methylpyridin-2-yl)oxy)phenyl)-4-oxo-4,5-dihydro-3H-1-thia-3,5,8-triazaacenaphthylene-2-carboxamide]
7.37	C=CC(=O)N[C@H]1CCC[C@H]1NC(=O)c1sc2nccc3c2c1NC(=O)N3c1ccc(Oc2cccnc2)nc1C [Example 494, N-((1R,2S)-2-Acrylamidocyclopentyl)-5-(2-methyl-6-(pyridin-3-yloxy)pyridin-3-yl)-4-oxo-4,5-dihydro-3H-1-thia-3,5,8-triazaacenaphthylene-2-carboxamide]
7.62	C=CC(=O)N[C@H]1CCC[C@H]1NC(=O)c1sc2nccc3c2c1NC(=O)N3c1cnc(Oc2ccccn2)cc1C [Example 488, N-((1R,2S)-2-Acrylamidocyclopentyl)-5-(4-methyl-6-(pyridin-2-yloxy)pyridin-3-yl)-4-oxo-4,5-dihydro-3H-1-thia-3,5,8-triazaacenaphthylene-2-carboxamide]
7.25	C=CC(=O)N[C@H]1CCC[C@H]1NC(=O)c1sc2nccc3c2c1NC(=O)N3c1cnc(Oc2ncccn2)cc1C [Example 465, N-((1R,2S)-2-Acrylamidocyclopentyl)-5-(4-methyl-6-(pyrimidin-2-yloxy)pyridin-3-yl)-4-oxo-4,5-dihydro-3H-1-thia-3,5,8-triazaacenaphthylene-2-carboxamide]

same assay, conditions: compound, 50 nM Tracer 236, 2 nM anti-GST antibody, 60 minutes; pIC50 = negative log of the IC50 in molar

Compound	BTK_I_binding pIC50
CN(C)C/C=C/C(=O)N[C@@H]1CC[C@H](NC(=O)c2sc3nccc4c3c2NC(=O)N4c2ccc(Oc3ccccc3)c(Cl)c2)C1 [Example 248, 5-(3-Chloro-4-phenoxyphenyl)-N-((1S,3R)-3-((E)-4-(dimethylamino)but-2-enamido)cyclopentyl)-4-oxo-4,5-dihydro-3H-1-thia-3,5,8-triazaacenaphthylene-2-carboxamide]	6.98
N[C@@H]1CCC[C@H]1NC(=O)c1sc2nccc3c2c1NC(=O)N3c1ccc(Oc2ccccc2)cc1 [Example 91, N-((1R,2R)-2-Aminocyclopentyl)-4-oxo-5-(4-phenoxyphenyl)-4,5-dihydro-3H-1-thia-3,5,8-triazaacenaphthylene-2-carboxamide]	7.31
Cc1cc(Oc2ccccc2)ccc1N1C(=O)Nc2c(C(=O)N[C@H]3CC[C@@H](NC(=O)/C=C/CN(C)C)CC3)sc3nccc1c23 [Example 77, N-((1S,4S)-4-((E)-4-(Dimethylamino)but-2-enamido)cyclohexyl)-5-(2-methyl-4-phenoxyphenyl)-4-oxo-4,5-dihydro-3H-1-thia-3,5,8-triazaacenaphthylene-2-carboxamide]	6.61
Cc1cc(Oc2ccccc2)ccc1N1C(=O)Nc2c(C(=O)N[C@H]3CC[C@@H](N)C3)sc3nccc1c23 [Example 76, N-((1S,3R)-3-Aminocyclopentyl)-5-(2-methyl-4-phenoxyphenyl)-4-oxo-4,5-dihydro-3H-1-thia-3,5,8-triazaacenaphthylene-2-carboxamide]	6.88
Cc1cc(Oc2ccccc2)ccc1N1C(=O)Nc2c(C(=O)N[C@H]3CCCC[C@H]3N(C)C)sc3nccc1c23 [Example 48, N-((1S,2R)-2-(Dimethylamino)cyclohexyl)-5-(2-methyl-4-phenoxyphenyl)-4-oxo-4,5-dihydro-3H-1-thia-3,5,8-triazaacenaphthylene-2-carboxamide]	6.12
Cc1cc(Oc2ccccc2)ccc1N1C(=O)Nc2c(C(=O)N[C@H]3CCC[C@@H]3N)sc3nccc1c23 (single isomer, unassigned) [Example 135, N-((1S,2S)-2-Aminocyclopentyl)-5-(*S)-(2-methyl-4-phenoxyphenyl)-4-oxo-4,5-dihydro-3H-1-thia-3,5,8-triazaacenaphthylene-2-carboxamide]	6.82
CNC1CCCCC1NC(=O)c1sc2nccc3c2c1NC(=O)N3c1ccc(Oc2ccccc2)cc1C (stereo not shown) [Example 31, 5-(2-Methyl-4-phenoxyphenyl)-N-(2-(methylamino)cyclohexyl)-4-oxo-4,5-dihydro-3H-1-thia-3,5,8-triazaacenaphthylene-2-carboxamide]	6.66
N[C@H]1CCCC[C@H]1NC(=O)c1sc2nccc3c2c1NC(=O)N3c1cccc(-c2ccccc2)c1 [Example 141, 5-([1,1′-Biphenyl]-3-yl)-N-((1R,2S)-2-aminocyclohexyl)-4-oxo-4,5-dihydro-3H-1-thia-3,5,8-triazaacenaphthylene-2-carboxamide]	7.01
CC(=O)N[C@H]1CCC[C@H](NC(=O)c2sc3nccc4c3c2NC(=O)N4c2ccc(Oc3ccccc3)cc2C)C1 (single isomer, unassigned) [Example 253, N-((1R,3S)-3-Acetamidocyclohexyl)-5-(*S)-(2-methyl-4-phenoxyphenyl)-4-oxo-4,5-dihydro-3H-1-thia-3,5,8-triazaacenaphthylene-2-carboxamide]	6.63
CCC(=O)N[C@H]1CC[C@@H](NC(=O)c2sc3nccc4c3c2NC(=O)N4c2ccc(Oc3ccccc3)cc2C)CC1 (single isomer, unassigned) [Example 92, 5-(*S)-(2-Methyl-4-phenoxyphenyl)-4-oxo-N-((1S,4S)-4-propionamidocyclohexyl)-4,5-dihydro-3H-1-thia-3,5,8-triazaacenaphthylene-2-carboxamide]	6.91

Now from value to compound:

BTK_I_binding pIC50	Compound
7.39	Cc1cc(Oc2ccccc2)ccc1N1C(=O)Nc2c(C(=O)N[C@@H]3CCCC[C@@H]3NC(=O)CN)sc3nccc1c23 (single isomer, unassigned) [Example 129, N-((1R,2S)-2-(2-Aminoacetamido)cyclohexyl)-5-(*S)-(2-methyl-4-phenoxyphenyl)-4-oxo-4,5-dihydro-3H-1-thia-3,5,8-triazaacenaphthylene-2-carboxamide]
7.19	Cc1cc(Oc2ccccc2)ncc1N1C(=O)Nc2c(C(=O)N[C@@H]3CCC[C@@H]3NC(=O)CCCl)sc3nccc1c23 (single isomer, unassigned) [Example 210, N-((1R,2S)-2-(3-Chloropropanamido)cyclopentyl)-5-(*S)-(4-methyl-6-phenoxypyridin-3-yl)-4-oxo-4,5-dihydro-3H-1-thia-3,5,8-triazaacenaphthylene-2-carboxamide]
7.89	C=CC(=O)N[C@H]1CCC[C@H]1NC(=O)c1sc2nccc3c2c1NC(=O)N3c1cccc(-c2ccccn2)c1 [Example 194, N-((1R,2S)-2-Acrylamidocyclopentyl)-4-oxo-5-(3-(pyridin-2-yl)phenyl)-4,5-dihydro-3H-1-thia-3,5,8-triazaacenaphthylene-2-carboxamide]

same assay, conditions: read-out: BTK_I_binding pIC50 (converted)

IC50	Compound
> 1000 nM	C=CC(=O)N[C@H]1CC[C@H](NC(=O)c2sc3nccc4c3c2NC(=O)N4c2ccnc(-c3ccccc3)c2)C1 [Example 282, N-((1S,3S)-3-Acrylamidocyclopentyl)-4-oxo-5-(2-phenylpyridin-4-yl)-4,5-dihydro-3H-1-thia-3,5,8-triazaacenaphthylene-2-carboxamide]
> 1000 nM	C=CC(=O)N[C@@H]1CCCC[C@H]1NC(=O)c1sc2nccc3c2c1NC(=O)N3c1ccc(OC(C)C)cc1C (single isomer, unassigned) [Example 273, N-((1R,2R)-2-Acrylamidocyclohexyl)-5-(*S)-(4-isopropoxy-2-methylphenyl)-4-oxo-4,5-dihydro-3H-1-thia-3,5,8-triazaacenaphthylene-2-carboxamide]
> 1000 nM	CC(=O)N[C@@H]1CCC[C@H](NC(=O)c2sc3nccc4c3c2NC(=O)N4c2ccc(Oc3ccccc3)nc2C)C1 (single isomer, unassigned) [Example 413, N-((1S,3R)-3-Acetamidocyclohexyl)-5-(*S)-(2-methyl-6-phenoxypyridin-3-yl)-4-oxo-4,5-dihydro-3H-1-thia-3,5,8-triazaacenaphthylene-2-carboxamide]
> 1000 nM	N[C@H]1CCC[C@H]1NC(=O)c1sc2nccc3c2c1NC(=O)N3c1cncc(-c2ccccc2)c1 [Example 284, N-((1R,2S)-2-Aminocyclopentyl)-4-oxo-5-(5-phenylpyridin-3-yl)-4,5-dihydro-3H-1-thia-3,5,8-triazaacenaphthylene-2-carboxamide]
